Test results as given in the supplement of paper PMC10307832.

What was measured:
Experiment in all cases: relative viability (nuclei count vs DMSO), 5 days (fraction); higher = more cells survive
Everolimus + Luminespib = compound: CO[C@H]1C[C@@H]2CC[C@@H](C)[C@@](O)(O2)C(=O)C(=O)N2CCCC[C@H]2C(=O)O[C@H]([C@H](C)C[C@@H]2CC[C@@H](OCCO)[C@H](OC)C2)CC(=O)[C@H](C)/C=C(\C)[C@@H](O)[C@@H](OC)C(=O)[C@H](C)C[C@H](C)/C=C/C=C/C=C/1C [Everolimus] + CCNC(=O)c1noc(-c2cc(C(C)C)c(O)cc2O)c1-c1ccc(CN2CCOCC2)cc1 [Luminespib] (partner 0.01 µM)
Method in brief: (§1)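 Relative viability was taken as the ratio of nuclei in treated wells to nuclei in vehicle wells. Lung cancer cell lines in 1536-well plates received compounds by pin tool one day after seeding, either one drug alone or a fixed anchor-drug dose plus five library-drug doses (not always all listed) in √10 steps. Nuclei were counted on 4× images after 5 days of treatment, and values are medians of duplicate plates.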

Everolimus + Alpelisib = compound: CO[C@H]1C[C@@H]2CC[C@@H](C)[C@@](O)(O2)C(=O)C(=O)N2CCCC[C@H]2C(=O)O[C@H]([C@H](C)C[C@@H]2CC[C@@H](OCCO)[C@H](OC)C2)CC(=O)[C@H](C)/C=C(\C)[C@@H](O)[C@@H](OC)C(=O)[C@H](C)C[C@H](C)/C=C/C=C/C=C/1C [Everolimus] + Cc1nc(NC(=O)N2CCC[C@H]2C(N)=O)sc1-c1ccnc(C(C)(C)C(F)(F)F)c1 [Alpelisib] (partner 2 µM)
Method in brief: as §1

Everolimus + Dasatinib = compound: CO[C@H]1C[C@@H]2CC[C@@H](C)[C@@](O)(O2)C(=O)C(=O)N2CCCC[C@H]2C(=O)O[C@H]([C@H](C)C[C@@H]2CC[C@@H](OCCO)[C@H](OC)C2)CC(=O)[C@H](C)/C=C(\C)[C@@H](O)[C@@H](OC)C(=O)[C@H](C)C[C@H](C)/C=C/C=C/C=C/1C [Everolimus] + Cc1nc(Nc2ncc(C(=O)Nc3c(C)cccc3Cl)s2)cc(N2CCN(CCO)CC2)n1 [Dasatinib] (partner 0.075 µM)
Method in brief: as §1

Everolimus + Tozasertib = compound: CO[C@H]1C[C@@H]2CC[C@@H](C)[C@@](O)(O2)C(=O)C(=O)N2CCCC[C@H]2C(=O)O[C@H]([C@H](C)C[C@@H]2CC[C@@H](OCCO)[C@H](OC)C2)CC(=O)[C@H](C)/C=C(\C)[C@@H](O)[C@@H](OC)C(=O)[C@H](C)C[C@H](C)/C=C/C=C/C=C/1C [Everolimus] + Cc1cc(Nc2cc(N3CCN(C)CC3)nc(Sc3ccc(NC(=O)C4CC4)cc3)n2)n[nH]1 [Tozasertib] (partner 0.1 µM)
Method in brief: as §1

Cell Line	relative viability (Everolimus + Luminespib; first compound 0.01 µM)	relative viability (Everolimus + Luminespib; first compound 0.03162 µM)	relative viability (Everolimus + Luminespib; first compound 0.1 µM)	relative viability (Everolimus + Luminespib; first compound 0.3162 µM)	relative viability (Everolimus + Luminespib; first compound 1 µM)	relative viability (Everolimus + Alpelisib; first compound 0.01 µM)	relative viability (Everolimus + Alpelisib; first compound 0.03162 µM)	relative viability (Everolimus + Alpelisib; first compound 0.1 µM)	relative viability (Everolimus + Alpelisib; first compound 0.3162 µM)	relative viability (Everolimus + Alpelisib; first compound 1 µM)	relative viability (Everolimus + Dasatinib; first compound 0.01 µM)	relative viability (Everolimus + Dasatinib; first compound 0.03162 µM)	relative viability (Everolimus + Dasatinib; first compound 0.1 µM)	relative viability (Everolimus + Dasatinib; first compound 0.3162 µM)	relative viability (Everolimus + Dasatinib; first compound 1 µM)	relative viability (Everolimus + Tozasertib; first compound 0.01 µM)	relative viability (Everolimus + Tozasertib; first compound 0.03162 µM)	relative viability (Everolimus + Tozasertib; first compound 0.1 µM)	relative viability (Everolimus + Tozasertib; first compound 0.3162 µM)	relative viability (Everolimus + Tozasertib; first compound 1 µM)
LCLC-103H	0.839	0.819	0.689	0.741	0.733	0.887	0.855	0.846	0.776	0.639	0.404	0.305	0.35	0.319	0.322	0.459	0.451	0.4	0.446	0.322
LK-2	0.179	–	0.171	0.177	0.189	0.827	–	0.607	0.568	0.556	0.231	–	0.239	0.209	0.306	0.165	–	0.179	0.17	0.17
LOU-NH91	0.284	0.307	0.317	0.321	0.314	0.64	0.551	0.543	0.564	0.52	0.486	0.467	0.476	0.434	0.449	0.637	0.608	0.63	0.609	0.656
LU99A	0.226	0.204	0.185	0.191	0.253	0.284	0.278	0.294	0.259	0.315	0.452	0.499	0.439	0.284	0.35	0.23	0.282	0.252	0.222	0.263
LXF-289	0.59	0.512	0.582	0.641	0.66	0.993	0.967	0.901	0.973	0.868	0.291	0.199	0.151	0.197	0.178	0.217	0.217	0.162	0.205	0.193
NCI-H23	0.211	0.2	0.21	0.232	0.218	0.355	0.326	0.285	0.281	0.309	0.406	0.371	0.386	0.391	0.484	0.396	0.295	0.299	0.358	0.217
NCI-H322M	0.579	0.568	0.387	0.554	0.543	0.686	0.577	0.578	0.585	0.58	0.243	0.245	0.245	0.243	0.244	0.416	0.355	0.397	0.421	0.426
NCI-H358	0.325	0.237	0.196	0.214	0.206	0.504	0.362	0.438	0.445	0.402	0.115	0.138	0.133	0.0942	0.114	0.0999	0.106	0.0871	0.101	0.0971
NCI-H441	0.272	0.267	0.223	0.271	0.234	0.515	0.575	0.582	0.564	0.461	0.55	0.501	0.431	0.504	0.47	0.521	0.643	0.636	0.555	0.54
NCI-H460	0.0198	0.0198	0.0232	0.0224	0.0194	0.22	0.298	0.199	0.271	0.168	0.38	0.38	0.323	0.203	0.298	0.719	0.698	0.603	0.538	0.569
NCI-H520	0.23	0.237	0.215	0.235	0.206	0.434	0.474	0.335	0.296	0.257	0.118	0.143	0.176	0.144	0.176	0.271	0.28	0.264	0.222	0.239
NCI-H596	0.636	0.5	0.379	0.533	0.519	0.386	0.297	0.347	0.382	0.37	0.395	0.428	0.392	0.462	0.482	0.528	0.548	0.485	0.455	0.478
NCI-H647	0.11	0.143	0.111	0.107	0.142	0.626	0.534	0.449	0.429	0.757	0.15	0.198	0.184	0.145	0.157	0.28	0.281	0.198	0.344	0.14
NCI-H650	0.858	–	0.511	0.609	0.345	1.05	–	0.752	0.592	0.587	0.363	–	0.357	0.361	0.307	0.738	–	0.604	0.589	0.45
NCI-H661	0.821	0.767	0.659	0.688	0.534	0.438	0.345	0.35	0.383	0.309	0.694	0.56	0.575	0.615	0.472	0.363	0.368	0.391	0.359	0.376
